Values quoted from earlier work in patent publication EP0584511B1, “PROCESS FOR THE PREPARATION OF A COMPOSITE TEXTILE MATERIAL” (ALCANTARA S.p.A., priority 1992, dated 1994).

Settings: substituted aromatic amines proposed as replacement extenders; background statement

| Molecule | classification at Ames's test |
| --- | --- |
| Cc1cc(Cc2cc(C)c(N)c(C(C)C)c2)cc(C(C)C)c1N [4-4' methylene-bis-(2 isopropyl-6 methylaniline)] | non cancerogenic |
| CCc1cc(Cc2cc(CC)c(N)c(CC)c2Cl)c(Cl)c(CC)c1N [4-4' methylene-bis-(3-chloro-2,6-diethylaniline)] | non cancerogenic |
| diethyltoluene diamine | non cancerogenic |
